Data reported in US9409892B2, “4-hydroxy-isoquinoline compounds as HIF hydroxylase inhibitors” (FIBROGEN, INC., priority 2012, dated 2016).
“And” between values parts separate entries of the source, which are not always exact repeats. Identical values can stand only once. Like-named read-outs stand apart in the source and are kept apart here.

Tests used:
PHD1 (EGLN2) = PHD1 (EGLN2) (Homo sapiens (Human), UniProt Q96KS0); experiment: HIF-PH assay (14CO2 capture), PHD1 enzyme inhibition; format: biochemical
Chain of PHD1 (EGLN2) (Q96KS0 whole entry, the tested form may be a part): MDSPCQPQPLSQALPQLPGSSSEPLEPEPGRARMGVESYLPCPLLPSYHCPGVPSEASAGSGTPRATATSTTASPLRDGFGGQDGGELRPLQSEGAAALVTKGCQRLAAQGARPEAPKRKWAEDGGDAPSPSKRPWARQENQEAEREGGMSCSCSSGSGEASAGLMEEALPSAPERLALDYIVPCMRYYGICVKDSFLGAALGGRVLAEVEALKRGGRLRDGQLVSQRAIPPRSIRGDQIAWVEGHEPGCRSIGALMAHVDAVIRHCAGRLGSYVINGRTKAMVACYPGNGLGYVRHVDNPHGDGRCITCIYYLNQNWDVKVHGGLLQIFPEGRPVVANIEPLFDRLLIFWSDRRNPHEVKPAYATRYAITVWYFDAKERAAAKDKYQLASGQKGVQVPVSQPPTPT
Description: (§1) Ketoglutaric acid α-[1-^14C]-sodium salt, alpha-ketoglutaric acid sodium salt, and HPLC purified peptide may be obtained from commercial sources, e.g., Perkin-Elmer (Wellesley Mass.), Sigma-Aldrich, and SynPep Corp. (Dublin Calif.), respectively. Peptides for use in the assay may be fragments of HIFα as described above or as disclosed in International Publication WO 2005/118836, incorporated by reference herein. HIF-pH, e.g., PHD1 (EGLN2) or PHD2 (EGLN1), can be expressed in, e.g., insect Hi5 cells, and partially purified, e.g., through a SP ion exchange chromatography column. Enzyme activity is determined by capturing ^14CO2 using an assay described by Kivirikko and Myllyla (1982, Methods Enzymol. 82:245-304). Assay reactions contain 50 mM HEPES (pH 7.4), 100 μM α-ketoglutaric acid sodium salt, 0.30 mCi/mL ketoglutaric acid α-[1-^14C]-sodium salt, 40 μM FeSO4, 1 mM ascorbate, 1541.8 units/mL Catalase, with or without 50 μM peptide substrate and various concentrations of compound of the invention. Reactions are initiated by addition of HIF-PH enzyme.
(§2) The peptide-dependent percent turnover is calculated by subtracting percent turnover in the absence of peptide from percent turnover in the presence of substrate peptide. Percent inhibition and IC50 are calculated using peptide-dependent percent turnover at given inhibitor concentrations. Calculation of IC50 values for each inhibitor is conducted using GraFit software (Erithacus Software Ltd., Surrey UK).
(§3) The PHD2/PHD1 is the ratio of the IC50 of the compound for each enzyme.

PHD2 (EGLN1) = PHD2 (EGLN1) (Homo sapiens (Human), UniProt Q9GZT9); experiment: HIF-PH assay (14CO2 capture), PHD2 enzyme inhibition; format: biochemical; details: Table 1
Chain of PHD2 (EGLN1) (Q9GZT9 whole entry): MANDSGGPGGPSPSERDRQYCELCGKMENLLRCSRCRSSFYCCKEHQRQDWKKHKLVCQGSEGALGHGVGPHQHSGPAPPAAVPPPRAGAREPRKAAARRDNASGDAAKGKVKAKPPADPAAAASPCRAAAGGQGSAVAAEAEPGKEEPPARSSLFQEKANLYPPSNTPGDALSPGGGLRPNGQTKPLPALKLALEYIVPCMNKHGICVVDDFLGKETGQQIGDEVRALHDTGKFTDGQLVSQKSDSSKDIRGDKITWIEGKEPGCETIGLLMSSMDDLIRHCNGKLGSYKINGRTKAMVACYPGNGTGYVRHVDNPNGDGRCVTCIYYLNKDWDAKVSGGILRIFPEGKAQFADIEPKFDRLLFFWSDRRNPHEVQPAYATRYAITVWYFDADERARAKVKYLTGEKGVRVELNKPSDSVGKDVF
Description: as §1, §2, §3

[1] = Table 1, individual measurement, read-out: IC50 (μM) PHD1
[2] = Table 1, ratio of the IC50 of the compound for each enzyme
[3] = individual measurement, read-out: IC50 (μM) PHD2
[4] = Table 2 comparative data, IC50 PHD2/IC50 PHD1

IC50 (PHD1 (EGLN2); [1])	PHD2/PHD1 (PHD1 (EGLN2); [2])	IC50 (PHD2 (EGLN1); [3])	IC50 (PHD1 (EGLN2); Table 1, average of multiple independent measurements, read-out: IC50 (μM) PHD1 avg.)	PHD2/PHD1 avg. (PHD1 (EGLN2); Table 1, average of the ratios of multiple independent measurements)	IC50 (PHD2 (EGLN1); average of multiple independent measurements, read-out: IC50 (μM) PHD2 avg.)	PHD2/PHD1 (PHD1 (EGLN2); [4])	Compound
0.28 µM	7.5	2.1 µM					CC(=O)N[C@H](CCNC(=O)c1nc(C#N)c2cc(Oc3ccccc3)ccc2c1O)C(=O)O [Compound 51, (R)-2-Acetylamino-4-[(1-cyano-4-hydroxy-7-phenoxy-isoquinoline-3-carbonyl)-amino]-butyric acid]
1.89 µM	13	24.3 µM					N#Cc1nc(C(=O)NCC2(C(=O)O)CCOCC2)c(O)c2ccc(Oc3ccccc3)cc12 [Compound 16, 4-{[(1-Cyano-4-hydroxy-7-phenoxy-isoquinoline-3-carbonyl)-amino]-methyl}-tetrahydro-pyran-4-carboxylic acid]
0.7 µM	8	5.43 µM					N#Cc1nc(C(=O)NCC2(C(=O)O)CCC2)c(O)c2ccc(Oc3c(F)cccc3F)cc12 [Compound 26, 1-({[1-Cyano-7-(2,6-difluoro-phenoxy)-4-hydroxy-isoquinoline-3-carbonyl]-amino}-methyl)-cyclobutanecarboxylic acid]
1 µM and 1.08 µM		3.65 µM and 10.8 µM	1.04 µM	6.8 avg	7.23 µM		COc1ccccc1Oc1ccc2c(O)c(C(=O)NCC(C)(C)C(=O)O)nc(C#N)c2c1 [Compound 60, 3{-[1-Cyano-4-hydroxy-7-(2-methoxy-phenoxy)-isoquinoline-3-carbonyl]-amino}-2,2-dimethyl-propionic acid]
1.13 µM	21	24.1 µM					CC(C)(CNC(=O)c1nc(C#N)c2cc(-c3ccccc3)ccc2c1O)C(=O)O [Compound 138, 3-[(1-Cyano-4-hydroxy-7-phenyl-isoquinoline-3-carbonyl)-amino]-2,2-dimethyl-propionic acid]
0.42 µM	12	4.95 µM					N#Cc1nc(C(=O)NCCCCC(=O)O)c(O)c2ccc(Oc3ccccc3)cc12 [Compound 81, 5-[(1-Cyano-4-hydroxy-7-phenoxy-isoquinoline-3-carbonyl)-amino]-pentanoic acid]
2.3 µM	6	13.4 µM					COc1ccc(Oc2ccc3c(O)c(C(=O)NCCCCC(=O)O)ncc3c2)cc1 [Compound 105, 5-{[4-Hydroxy-7-(4-methoxy-phenoxy)-isoquinoline-3-carbonyl]-amino}-pentanoic acid]
0.75 µM	14	10.5 µM					N#Cc1nc(C(=O)NCC(C(=O)O)C2CC2)c(O)c2ccc(Oc3ccccc3F)cc12 (stereo not shown) [Compound 177, 3{-[1-Cyano-7-(2-fluoro-phenoxy)-4-hydroxy-isoquinoline-3-carbonyl]-amino}-2-cyclopropyl-propionic acid]
0.35 µM	8	2.88 µM					O=C(O)CCNC(=O)c1ncc2cc(S(=O)(=O)C3CCCCC3)ccc2c1O [Compound 135, 3-[(7-Cyclohexanesulfonyl-4-hydroxy-isoquinoline-3-carbonyl)-amino]-propionic acid]
1.08 µM	14	15.6 µM				14	O=C(NC[C@H](O)C(=O)O)c1ncc2cc(Oc3ccccc3)ccc2c1O [Compound 3, 2-(S)-Hydroxy-3-[(4-hydroxy-7-phenoxy-isoquinoline-3-carbonyl)-amino]propionic acid]
9.71 µM	5	51.5 µM					O=C(NCC1(C(=O)O)CCOCC1)c1ncc2cc(Oc3ccccc3)ccc2c1O [Compound 15, 4-{[(4-Hydroxy-7-phenoxy-isoquinoline-3-carbonyl)-amino]-methyl}-tetrahydro-pyran-4-carboxylic acid]
0.36 µM	11	3.95 µM					CC(C)(CNC(=O)c1nc(C#N)c2cc(Oc3cccc(F)c3)ccc2c1O)C(=O)O [Compound 42, 3-(1-Cyano-7-(3-fluorophenoxy)-4-hydroxyisoquinoline-3-carboxamido)-2,2-dimethylpropanoic acid]
0.41 µM	11	4.65 µM					CC(C)(CNC(=O)c1nc(C#N)c2cc(Oc3ccc(F)cc3)ccc2c1O)C(=O)O [Compound 101, 3{-[1-Cyano-7-(4-fluoro-phenoxy)-4-hydroxy-isoquinoline-3-carbonyl]-amino}-2,2-dimethyl-propionic acid]
2.55 µM	12	30.9 µM					N#Cc1nc(C(=O)NCC(CC(=O)O)c2ccc(Cl)cc2)c(O)c2ccc(Oc3ccccc3)cc12 (stereo not shown) [Compound 34, 3-(4-Chloro-phenyl)-4-[(1-cyano-4-hydroxy-7-phenoxy-isoquinoline-3-carbonyl)-amino]-butyric acid]
11.1 µM	8	88.4 µM					CC(C)(CNC(=O)c1nc(-c2ccccc2)c2cc(Oc3ccccc3)ccc2c1O)C(=O)O [Compound 143, 3-[(4-Hydroxy-7-phenoxy-1-phenyl-isoquinoline-3-carbonyl)-amino]-2,2-dimethyl-propionic acid]
3.39 µM	14	47.9 µM					CCCC(CNC(=O)c1nc(C#N)c2cc(Oc3ccccc3)ccc2c1O)C(=O)O (stereo not shown) [Compound 17, 2-{[(1-Cyano-4-hydroxy-7-phenoxy-isoquinoline-3-carbonyl)-amino]-methyl}-pentanoic acid]
0.24 µM	5	1.33 µM				5	N#Cc1nc(C(=O)NCCC(=O)O)c(O)c2ccc(Oc3ccccc3)cc12 [Compound 10, 3-[(1-Cyano-4-hydroxy-7-phenoxy-isoquinoline-3-carbonyl)-amino]-propionic acid]
1.91 µM	6	11.3 µM					N#Cc1nc(C(=O)NC(CC(=O)O)c2ccccc2)c(O)c2ccc(Oc3ccccc3)cc12 (stereo not shown) [Compound 91, 3-[(1-Cyano-4-hydroxy-7-phenoxy-isoquinoline-3-carbonyl)-amino]-3-phenyl-propionic acid]
17.4 µM	12	200 µM					CC(C)(CNC(=O)c1nc(C#N)c2cc(S(=O)(=O)C3CCCCC3)ccc2c1O)C(=O)O [Compound 160, 3-[(1-Cyano-7-cyclohexanesulfonyl-4-hydroxy-isoquinoline-3-carbonyl)-amino]-2,2-dimethyl-propionic acid]
2.38 µM	12	27.6 µM					O=C(O)CCNC(=O)c1ncc2cc(-c3ccc(F)cc3)ccc2c1O [Compound 132, 3-{[7-(4-Fluoro-phenyl)-4-hydroxy-isoquinoline-3-carbonyl]-amino}-propionic acid]
7.69 µM	8	63.1 µM					CC(C)(CNC(=O)c1ncc2cc(Sc3ccccc3)ccc2c1O)C(=O)O [Compound 127, 3-[(4-Hydroxy-7-phenylsulfanyl-isoquinoline-3-carbonyl)-amino]-2,2-dimethyl-propionic acid]
0.53 µM	16	8.5 µM					CC(C)(CC(=O)O)NC(=O)c1nc(C#N)c2cc(Oc3ccc(F)cc3)ccc2c1O [Compound 102, 3{-[1-Cyano-7-(4-fluoro-phenoxy)-4-hydroxy-isoquinoline-3-carbonyl]-amino}-3-methyl-butyric acid]
6.75 µM	6	39.4 µM					N#Cc1nc(C(=O)NC(CC(=O)O)c2cccnc2)c(O)c2ccc(Oc3ccccc3)cc12 (stereo not shown) [Compound 174, 3-[(1-Cyano-4-hydroxy-7-phenoxy-isoquinoline-3-carbonyl)-amino]-3-pyridin-3-yl-propionic acid]
0.48 µM	6	3.06 µM					CCc1ccccc1Oc1ccc2c(O)c(C(=O)NCC(C)(C)C(=O)O)nc(C#N)c2c1 [Compound 62, 3{-[1-Cyano-7-(2-ethyl-phenoxy)-4-hydroxy-isoquinoline-3-carbonyl]-amino}-2,2-dimethyl-propionic acid]
25.4 µM	8	200 µM					O=C(O)CCCCNC(=O)c1ncc2cc(Nc3ccccc3)ccc2c1O [Compound 124, 5-[(4-Hydroxy-7-phenylamino-isoquinoline-3-carbonyl)-amino]-pentanoic acid]
1.86 µM	35	65.8 µM					C[C@H](C(=O)O)[C@@H](C)NC(=O)c1nc(C#N)c2cc(Oc3ccccc3)ccc2c1O [Compound 70, (2S,3R)-3-[(1-Cyano-4-hydroxy-7-phenoxy-isoquinoline-3-carbonyl)-amino]-2-methyl-butyric acid]
0.28 µM	14	3.9 µM					Cc1ccc(Oc2ccc3c(O)c(C(=O)NCC(C)(C)C(=O)O)nc(C#N)c3c2)cc1 [Compound 44, 3-[(1-Cyano-4-hydroxy-7-p-tolyloxy-isoquinoline-3-carbonyl)-amino]-2,2-dimethyl-propionic acid]
